# Measured values: patent US20080171704A1, “Composition and method for treating diabetes” (priority 2001, published 2008)
# Where a SMILES comes first, the peptide text is derived from it.
# Experiments:
# CD-1 mice = experiment: 31-day mouse repeat-dose toxicology study; format: in vivo
# Protocol: (§1) FIG. 7. Immunopositive tissue area in normal mouse following treatment with INGAP Peptide for 31 days. Data are mean ±SEM. The percentage of cross-sectional area stained for insulin was determined with an Olympus microscope (150×) and image analysis software (Image Pro Plus Version 4.0, Media Cybernetics).
# (§2) A repeat-dose toxicology study was conducted in mice with 31 days of daily injection of INGAP Peptide at 0, 2, 20, and 100 mg/kg/day. In this study, four treatment groups of 10 males and 10 females each were allocated, as were two groups of recovery animals (5 males and 5 females). Blood was collected at termination and necropsies were performed for gross and microscopic observations. Clinical pathology and serum levels were evaluated in approximately half the animals in each group. Selected organs (brain, adrenal, heart, kidney, liver, lung, pancreas, and spleen) were weighed and relative organ weights were calculated. A section of the pancreas was removed and frozen in liquid nitrogen for evaluation for insulin content and sections of pancreas tissue were submitted for independent microscopic examination. Recovery animals were terminated 28 days after cessation of dosing. Various parameters for further study as well as potentially drug-related abnormal findings were evaluated to determine the reproducibility and potential clinical significance.
# [1] = 31-day mouse repeat-dose toxicology study; format: in vivo, mice; conditions: mouse, in vivo; CD-1 mice, 31-day dosing; read-out: no adverse effect level (NOAEL)
# Protocol: as §1, §2
# patients = experiment: Human clinical studies in type I or type II diabetes mellitus; format: in vivo; conditions: versus placebo
# Protocol: Doses are often based on the results of efficacy and safety studies in animals. Two doses of INGAP Peptide, 7.5 mg (0.125 mg/kg, or 4.625 mg/m^2 for a 60 kg patient) and 120 mg ([…], or 74 mg/m^2 for a 60 kg patient) are exemplified in the treatment of type I or type II diabetes mellitus. The following parameters are evaluated to determine efficacy of INGAP Peptide treatment. • 1. A reduction of fasting glucose levels by >35 mg/dl while the total insulin dose is maintained. • 2. A reduction of insulin dose by 25% with fasting glucose levels maintained in the normal range as determined by the American Diabetes Association (ADA) criteria. • 3. An increase in fasting C-peptide >1 ng/ml is obtained. An increase in C-peptide of >2 ng/ml in response to Sustacal® (Boost®) is obtained.
# Each patient is randomized to receive one single intramuscular injection of INGAP Peptide. After evaluating efficacy and safety data, patients could be given further INGAP Peptide injections as deemed appropriate by the physician.
# Stimulated C-peptide tests are performed in the morning after an overnight fasting period of at least 10 hours. The tests are performed only if the fasting glucose is between 80 and 250 mg/dl. Patients can take their diabetes medications the evening before, but should not take them the morning of the test until the test is completed. Blood samples for the determination of C-peptide are drawn immediately before Boost® ingestion, and at 0.5, 2, and 4 hours post-ingestion. Boost® is administered through ingestion. Patients are considered insulin deficient if their fasting C-peptide is <1.0 ng/ml and their maximum stimulated C-peptide value is <2.0 ng/ml.
# [2] = test system: ARIP cells, a rat pancreatic duct cell line; experiment: ARIP cell BrdU proliferation bioassay; format: cell-based; conditions: FIG. 1
# Protocol: To confirm that the synthetic molecule is bioactive, a bioassay may be used to confirm the activity. ARIP cells, a rat pancreatic duct cell line, obtained from ATCC (Manassas, Va.) are used in the assay. Cells are plated into a 96-well culture plate at 10,000 cells/well, and cultured for 24 hours in Dulbecco's […] Essential Medium (DMEM) containing 10% fetal bovine serum. After 24 hours, the medium is replaced with DMEM without serum. […] After 21 hours, the medium is supplemented with bromodeoxyuridine (BrdU) labeling solution from a BrdU cell proliferation ELISA kit (Roche Molecular Biochemicals) and cultured for a further 3 hours. At 24 hours the cells are dried at 60° C. for 60 minutes, fixed and denatured. They are exposed to BrdU antibody for 90 minutes and developed for 15 minutes, all according to kit instructions. BrdU labeling is quantitated on a Wallac Victor 1420 Multilabel Counter. Results are compared against a standard curve of cells grown on the same culture plate, seeded at densities from 100 to 20,000 cells per well.
# [3] = test system: C57BL/6J mice made diabetic with STZ; experiment: In vivo efficacy study in streptozotocin-diabetic mice
# Protocol: FIG. 3. Time course of blood glucose following injection of INGAP Peptide […] twice daily or saline for 39 days to C57BL/6J mice rendered diabetic using a regimen of multiple injections of low-dose streptozotocin. Blood glucose levels were measured every three days.
# C57BL/6J mice were made diabetic with STZ (35 mg/kg/day×5 days) and divided in INGAP Peptide-treated (250 ? g twice daily) and saline control groups of 4 animals each. […] The appearance of glucagon producing cells is noteworthy since glucagon plays a major role in the defense against hypoglycemia. This feature of the INGAP Peptide induced islet neogenesis could help to reverse the impaired counter regulatory control of hypoglycemia associated with the overzealous treatment of diabetes. Hypoglycemia was not observed in any of the INGAP Peptide-treated animals. In saline-treated control animals, no new islet formation was observed.
# beagle dogs = experiment: 34-day dog repeat-dose toxicology study; format: in vivo
# Protocol: FIG. 8. Effects of daily injection of INGAP Peptide to dogs for 34 days on the area of cells in the pancreas that becomes positive for insulin by immunohistochemical staining. Data are mean ±SEM. The percentage of cross-sectional area stained for insulin was determined with an Olympus microscope (150×) and image analysis software (Image Pro Plus Version 4.0, Media Cybernetics).
# A repeat-dose toxicology study was conducted in beagle dogs for 34 days with daily IM injection of INGAP Peptide at 0, 0.5, 1.5, and 10 mg/kg/day. Pancreatic tissue was obtained for quantitation of β-cell mass by immunohistochemistry from animals sacrificed on Day 34, at termination of treatment, and from recovery animals sacrificed 25 days after termination of treatment. Pancreatic β-cell mass was increased following INGAP Peptide administration (see FIG. 8).
# [4] = Stability of bulk INGAP Peptide (lyophilized powder); format: physicochemical
# Protocol: Stability is determined by comparing various parameters including, but not limited to, degree of purity, total percentage of impurities, percentage of individual impurities (as determined by HPLC or other suitable quantitative method), appearance, and water content of the sample. An HPLC method can be used to determine any increase in the levels of degradation products relative to the level of INGAP Peptide. INGAP Peptide samples (both solution and lyophilized powder) are stored at various temperatures, in the presence or absence of humidity, and in light or dark vials. Degradation during different storage conditions can lead to an increase in impurities and decrease in INGAP Peptide content. It is desirable that the sample preparation is more than 80% pure, preferably more than 90% pure, more preferably more than 95%, and most preferably more than 97% pure.
# Purity of the INGAP Peptide is maintained under these conditions and degradation products are lower than the acceptable levels.
# normal hamsters = experiment: Islet formation in normal hamsters; format: in vivo, Syrian golden Hamsters; conditions: 5 mg/kg IP daily
# Protocol: FIG. 2. Increase in pancreatic endocrine cell mass with INGAP Peptide. Normal Syrian golden Hamsters were treated with saline (control) or INGAP Peptide IP for either 10 days or 30 days. The number of islets/ml was determined with a computer-aided Morphometric system employing Image-Pro Plus software.
# INGAP Peptide was studied for its effects on islet formation in normal hamsters. INGAP Peptide 5 mg/kg (25 mg/m^2) was given IP daily for 4 weeks and β-cell mass was assessed at 10 days and at 30 days. […] The islet neogenesis effect was manifested by production of more insulin and an increase in the number of islets in the pancreata. Newly formed β-cells appeared in the wall of, and budding from, pancreatic ducts. These insulin-positive cells resulted from ductal epithelial cell differentiation and islet cell growth, and their appearance was proportional to the dose and duration of treatment with INGAP Peptide. Over longer periods of treatment, these cells migrated away from the duct and formed islets in the parenchyma of the pancreas. After 10 consecutive days of INGAP Peptide administration, there was a 30% increase in islet number, and by 30 days there was a doubling of the number of islets in the tissues, consistent with the prior observations using ilotropin, INGAP, and cellophane wrapping in animal models.
smiles,measurement,setting,value
"CC[C@H](C)[C@H](N)C(=O)NCC(=O)N[C@@H](CC(C)C)C(=O)N[C@@H](Cc1c[nH]cn1)C(=O)N[C@@H](CC(=O)O)C(=O)N1CCC[C@H]1C(=O)N[C@@H](CO)C(=O)N[C@@H](Cc1c[nH]cn1)C(=O)NCC(=O)N[C@H](C(=O)N[C@@H](CC(C)C)C(=O)N1CCC[C@H]1C(=O)N[C@@H](CC(N)=O)C(=O)NCC(=O)N[C@@H](CO)C(=O)O)[C@@H](C)O [INGAP Peptide, NH2-Ile-Gly-Leu-His-Asp-Pro-Ser-His-Gly-Thr-Leu-Pro-Asn-Gly-Ser-COOH] (H-IGLHDPSHGTLPNGS-OH)",insulin-positive tissue area,"CD-1 mice; 31 days, FIG. 7",increase in insulin-positive tissue area
same,number of small islets,CD-1 mice; duct-associated and amongst acinar tissue,increase in the number of small islets
same,extramedullary hematopoiesis in the spleen,"CD-1 mice; mouse, in vivo",seen in one male animal at the high dose
same,injection site irritation,"CD-1 mice; mouse, in vivo",observed in males and females with increased frequency at the highest dose
same,microscopic pancreas findings,"CD-1 mice; mouse, in vivo","No microscopic evidence of inflammatory cell infiltration, edema, necrosis or atrophy"
same,NOAEL,[1],> 100 mg/kg
same,sugar tolerance,patients; intramuscular injection,improved sugar tolerance
same,C-peptide level in response to Boost®,patients,an increase in C-peptide level in response to Boost®
same,fasting C-peptide level,patients,an increase in fasting C-peptide level
same,fasting glucose level,patients,a reduction in fasting glucose level
same,insulin dose required,patients,a reduction in insulin does required
same,increase in cell count compared with controls,"[2]; 0.1 µg/ml INGAP Peptide, 24 h, BrdU ELISA",~1.6 fold
same,"cell number, dose dependence",[2],dose dependant increase in cell number
same,blood glucose concentrations,"[3]; 250 µg twice daily for 39 days, all four treated animals, FIG. 3",restored to normal
same,transdifferentiation of ductal cells (PDX-1 expression),[3]; FIG. 5,induced transdifferentiation of ductal cells
same,histopathologic evaluation of islets,[3]; FIGS. 4 and 6,both the presence of normal-appearing islets and areas of new islet formation
same,hypoglycemia,[3]; any of the treated animals,not observed
same,durability of the effect after dosing stopped,"[3]; dosing stopped after 39 days, study terminated at 48 days",48 days
same,islet inflammation,"[3]; versus saline-treated STZ-diabetic animals, FIG. 6",markedly reduced
same,pancreatic tissue section review,beagle dogs; 34-day daily IM dosing,"no changes such as edema, inflammatory cell infiltration, necrosis or atrophy"
same,pancreatic β-cell mass,"beagle dogs; daily IM 0.5, 1.5, 10 mg/kg/day for 34 days, immunohistochemistry, FIG. 8",increased
same,degradation on further storage,"[4]; lyophilized powder, storage up to six-months",does not cause any noticeable degradation
same,stability of lyophilized powder,[4]; various storage conditions,stable under various storage conditions
same,number of islets compared with placebo-treated animals,normal hamsters; FIG. 2,significant increase
same,increase in islet number,normal hamsters; after 10 consecutive days,30%
same,number of islets in the tissues,normal hamsters; by 30 days,doubling
